From patent publication US20250195603A1, “COMPOSITION FOR PREVENTING OR TREATING DENTAL CARIES” (HYSENSBIO CO., LTD., priority 2022, published 2025) come the findings set out here.

Holding throughout (format): cell-based
Experiment [1] has as its system human dental pulp cells. In words: Expression of inflammatory factors (RT-PCR) in LPS-treated human dental pulp cells. Conditions: 10 μg/mL LPS only. Here is the method: To confirm the preventive and therapeutic effects of a pharmaceutical composition (KH002) in stage 4 dental caries in which inflammation occurred after cells are affected by dental caries, human dental pulp cells were treated with lipopolysaccharide (LPS) and the pharmaceutical composition (KH002), and the expression of inflammatory factors was compared.
(§1) All experiments using human pulp cells were approved by the Institutional Review Board (IRB; S-D20140007) of the Seoul National University Dental Hospital and conducted in accordance with the guidelines and regulations of the institution. The third molars (wisdom teeth) were extracted from patients who signed the consent forms at the Seoul National University Dental Hospital, and pulp cells were isolated using a previously reported method (Choung et al., 2016). The teeth were cut open, the internal pulp was separated using forceps, and the pulp tissue was finely minced into 60-mm diameter cell culture dishes. […]
A reverse transcription polymerase chain reaction (RT-PCR) was performed to compare the expression of inflammatory factors, and the ratio of the expression level of each factor to the expression level of glyceraldehyde 3-phosphate dehydrogenase (GAPDH) was confirmed for quantitative comparison (FIG. 3).

Experiment [2] concerns human dental pulp cells. In words: Viability of human dental pulp cells in inflammatory environment (MTT). Particulars: 10 μg/mL LPS alone, vs negative control. The method, then:
To measure the cell viability, human dental pulp cells were inoculated in a 96-well plate at 5×10^3 cells/well and treated with 150 μL of a 3-(4,5-dimethyl-2-thiazolyl)-2,5-diphenyl-tetrazolium bromide (MTT, Medifab Co. Ltd.) solution for about two hours on days 1, 3, and 5, and the absorbance of the solution dissolved in DMSO was measured at 570 nm.
as §1, with “dishes. The finely minced pulp tissue was then covered with a cover glass and cultured in a cell culture medium to isolate human pulp cells.” for “dishes.”

A further experiment relates to human pulp cells. The experiment can be described thus: Wound-healing model of human pulp cells (scratch). Particulars: LPS only, 24 hours after scratch. The method, then:
Human pulp cells were inoculated in a 6-well plate at 1×10^5 cells/well, and the next day, the central portion was scratched with the tip of a 200 μL pipette, and the rate of cell growth was compared 24 hours later.
as §1, with “dishes. The finely minced pulp tissue was then covered with a cover glass and cultured in a cell culture medium to isolate human pulp cells.” for “dishes.”
Cell photographs were taken using an optical microscope using a 10× objective lens, and the photographs were analyzed using the ImageJ software program.

Experiment [3] concerns human dental pulp cells. In words: Mineralization ability of human dental pulp cells (alizarin red S). Conditions: LPS alone. The method, then: To this end, human dental pulp cells were inoculated in each 6-well dish at 1×10^5 cells/well and then cultured in a differentiation medium containing ascorbic acid (50 μg/mL) and beta-glycerophosphate (10 mM) for 7, 14, and 21 days from the next day.
as §1, with “dishes. The finely minced pulp tissue was then covered with a covered glass and cultured in a cell culture medium to isolate human pulp cells.” for “dishes.”
To compare the amount of mineralized matrix, the samples were fixed overnight at 4° C. with 4% paraformaldehyde (PFA), then treated with 40 mM alizarin red S (pH 4.2) at 25° C. for 30 minutes. After that, 0.5 mL of sodium dodecyl sulfate dissolved in 0.5 N hydrochloric acid was applied, and the samples were placed on a shaker for 30 minutes, and the absorbance was measured at 405 nm.

For lipopolysaccharide [LPS], in the experiment with human dental pulp cells [1], the “expression of inflammatory factors TNF-α, IL-1α, IL-1β, IL-6, CXCL10, iNOS, and COX2 (ratio to GAPDH)” value was “significantly increased”. Besides, in the experiment on human dental pulp cells [2], the “viability of dental pulp cells” value is listed as “significant decrease”. In addition, in the experiment on human pulp cells, the “wound healing ability as a ratio to the control group” value is on record as “about 50 % of the control group”. In the experiment on human dental pulp cells [3] (day 21, compared to control group), the “size of the mineral nodules” value was “significantly decreased”. In the experiment with human dental pulp cells [3] (days 7, 14, and 21, compared to control group), the “amount of mineralized matrix” value is listed as “significantly decreased”.
